From patent publication US11013780B2, “Methods of treating female infertility” (Myovant Sciences GmbH, priority 2016, dated 2021)
Like-named read-outs stand apart in the source and are kept apart here. Where a SMILES comes first, the peptide text is derived from it. [ ]: non-standard residue; d: D form. Arg(Me) = CNC(=N)NCCC[C@H](N)C(=O)O; Hyp = O=C(O)[C@@H]1C[C@@H](O)CN1; azaGly = NNC(=O)O

Columns and labels:
[1] = Single dose PK, phase 1, healthy European men; assay type: in vivo, human; settings: for Tmax / half-life / CL/F / AUC(0-inf) / AUC(0-t) / Cmax / Vd/F / CL renal / dose excreted: male, human; for Tmax / half-life / CL/F / AUC(0-inf) / AUC(0-t) / Cmax / Vd/F: plasma; for Vd/F: read-out: Vz/F; for CL renal: urine and plasma, read-out: CLr (renal clearance) (converted); for dose excreted: urine
Procedure: The study was conducted in France.
Eighty-two healthy European male subjects aged 50 to 76 years were enrolled into nine cohorts. 81/82 subjects (98.8%) were white and 1/82 subject (1.2%) was black/African American. Subjects enrolled in the first six cohorts received 0.001, 0.003, 0.01, 0.03, 0.1, or 0.3 mg of API-MA or placebo by single SC bolus. In the 0.3 mg cohort, 6 subjects received API-MA and two received placebo. In the remaining cohorts, 7 subjects received API-MA and three received placebo. Subjects enrolled in the seventh, eighth, and ninth cohorts received 1, 3, or 6 mg of API-MA or placebo by single 2-hour SC infusion. In these cohorts, 6 subjects received API-MA and two received placebo.
To measure urinary excretion of API-MA, urine specimens were collected at the following nominal times: from 12 hours prior to dosing until dosing and 0 to 6, 6 to 12, 12 to 24, 24 to 48 and 48 to 72 hours postdose.
To measure urinary excretion of API-MA, urine specimens were collected at the following nominal times: from 12 hours prior to dosing until dosing and 0 to 6, 6 to 12, 12 to 24, 24 to 48, and 48 to 72 hours after the start of the infusion.

[2] = tested on: serum LH and FSH; assay: Multiple-dose pharmacodynamics, continuous SC infusion, European men; assay type: in vivo, human
Procedure: This study was a phase 1 study of multiple-day, continuous SC infusions of API-MA to 30 healthy European men over age 50. […] Five to six men received active API-MA, and 1 to 2 men received placebo per dose level cohort. The pharmacodynamics of the following hormones were assessed: LH and FSH.
The SC infusion was started 24 hours after the bolus injection; all specimens collected after the 24-hour time point were collected during the SC infusion. Blood specimens were also collected on days 16, 17, 21, 28 and 44 to monitor the return of the hormone concentrations to baseline values.

[3] = single SC 0.001 mg, geometric mean
[4] = single SC 0.003 mg, geometric mean
[5] = single SC 0.01 mg, geometric mean
[6] = single SC 0.03 mg, geometric mean
[7] = single SC 0.1 mg, geometric mean
[8] = single SC 0.3 mg, geometric mean
[9] = subcutaneous, 2-hour INF 1 mg, geometric mean
[10] = subcutaneous, 2-hour INF 3 mg, geometric mean
[11] = subcutaneous, 2-hour INF 6 mg, geometric mean
[12] = single SC 0.001 mg, only 1 subject above LLOQ

CC(=O)O.CNC(=N)NCCC[C@H](NC(=O)[C@H](CC(C)C)NC(=O)NNC(=O)[C@H](Cc1ccccc1)NC(=O)[C@@H](NC(=O)[C@H](CC(N)=O)NC(=O)[C@@H]1C[C@@H](O)CN1C(=O)[C@@H](Cc1ccc(O)cc1)NC(C)=O)[C@@H](C)O)C(=O)N[C@@H](Cc1c[nH]c2ccccc12)C(N)=O [API-MA, 2-(N-Acetyl-D-tyrosyl-trans-4-hydroxy-L-prolyl-Lasparaginyl-L-threonyl-L-phenylalanyl)-hydrazinocarbonyl-L-leucyl-Nω-methyl-L-arginyl-L-tryptophanamide monoacetate] (Ac-[dY][Hyp]NTF[azaGly]L[Arg(Me)]W-NH2)
Ae(0-t) (urine) ([1]; 2-hour INF 1 mg, geometric mean (% CV)): 29971.789 (27.97) ng
Ae(0-t) (urine) ([1]; 2-hour INF 3 mg, geometric mean (% CV)): 118170.544 (41.46) ng
Ae(0-t) (urine) ([1]; 2-hour INF 6 mg, geometric mean (% CV)): 322822.342 (10.34) ng
Tmax ([1]; SC bolus, read-out: Median Tmax, range over cohorts): 0.5 to 0.75 h
half-life ([1]; sc, 0.001 mg, single SC 0.001 mg, read-out: T½ (median) (converted)): 1.8 h
half-life ([1]; sc, 0.003 mg, single SC 0.003 mg, read-out: T½ (median) (converted)): 1.43 h
half-life ([1]; sc, 0.01 mg, single SC 0.01 mg, read-out: T½ (median) (converted)): 2.17 h
half-life ([1]; sc, 0.03 mg, single SC 0.03 mg, read-out: T½ (median) (converted)): 2.61 h
half-life ([1]; sc, 0.1 mg, single SC 0.1 mg, read-out: T½ (median) (converted)): 3.08 h
half-life ([1]; sc, 0.3 mg, single SC 0.3 mg, read-out: T½ (median) (converted)): 3.45 h
CL/F ([1]; sc, 2-hour INF 1 mg, geometric mean): 380 mL/min
CL/F ([1]; sc, 2-hour INF 3 mg, geometric mean): 353 mL/min
CL/F ([1]; sc, 2-hour INF 6 mg, geometric mean): 315 mL/min
AUC(0-inf) [1, 3]: 0.0475 ng·h/mL
AUC(0-t) [1, 3]: 0.0267 ng·h/mL
CL/F [1, 3]: 351 mL/min
Cmax [1, 3]: 0.0133 ng/mL
Vd/F [1, 3]: 63.9 L
Tmax ([1]; single SC 0.001 mg, read-out: Tmax (median)): 0.5 h
AUC(0-inf) [1, 4]: 0.122 ng·h/mL
AUC(0-t) [1, 4]: 0.101 ng·h/mL
CL/F [1, 4]: 409 mL/min
Cmax [1, 4]: 0.0424 ng/mL
Vd/F [1, 4]: 55.9 L
Tmax ([1]; single SC 0.003 mg, read-out: Tmax (median)): 0.75 h
AUC(0-inf) [1, 5]: 0.371 ng·h/mL
AUC(0-t) [1, 5]: 0.345 ng·h/mL
CL/F [1, 5]: 449 mL/min
Cmax [1, 5]: 0.14 ng/mL
Vd/F [1, 5]: 85.6 L
Tmax ([1]; single SC 0.01 mg, read-out: Tmax (median)): 0.5 h
AUC(0-inf) [1, 6]: 1.11 ng·h/mL
AUC(0-t) [1, 6]: 1.07 ng·h/mL
CL/F [1, 6]: 451 mL/min
Cmax [1, 6]: 0.34 ng/mL
Vd/F [1, 6]: 96 L
Tmax ([1]; single SC 0.03 mg, read-out: Tmax (median)): 0.5 h
AUC(0-inf) [1, 7]: 3.94 ng·h/mL
AUC(0-t) [1, 7]: 3.89 ng·h/mL
CL/F [1, 7]: 423 mL/min
Cmax [1, 7]: 1.38 ng/mL
Vd/F [1, 7]: 108 L
Tmax ([1]; single SC 0.1 mg, read-out: Tmax (median)): 0.5 h
AUC(0-inf) [1, 8]: 13.2 ng·h/mL
AUC(0-t) [1, 8]: 13.2 ng·h/mL
CL/F [1, 8]: 378 mL/min
Cmax [1, 8]: 4.35 ng/mL
Vd/F [1, 8]: 114 L
Tmax ([1]; single SC 0.3 mg, read-out: Tmax (median)): 0.625 h
half-life ([1]; subcutaneous, 1 mg, 2-hour INF 1 mg, read-out: T1/2 (median) (converted)): 3.64 h
half-life ([1]; subcutaneous, 3 mg, 2-hour INF 3 mg, read-out: T1/2 (median) (converted)): 5.25 h
half-life ([1]; subcutaneous, 6 mg, 2-hour INF 6 mg, read-out: T1/2 (median) (converted)): 5.26 h
half-life ([1]; subcutaneous, 6 mg, 3 and 6 mg, read-out: Mean T1/2 at the highest doses (converted)): ~5.2 h
AUC(0-inf) [1, 9]: 43.8 ng·h/mL
AUC(0-t) [1, 9]: 43.7 ng·h/mL
Cmax [1, 9]: 13.1 ng/mL
Vd/F [1, 9]: 120 L
Tmax ([1]; subcutaneous, 2-hour INF 1 mg, read-out: Tmax (median)): 2.25 h
AUC(0-inf) [1, 10]: 141 ng·h/mL
AUC(0-t) [1, 10]: 141 ng·h/mL
Cmax [1, 10]: 39.4 ng/mL
Vd/F [1, 10]: 150 L
Tmax ([1]; subcutaneous, 2-hour INF 3 mg, read-out: Tmax (median)): 2.25 h
AUC(0-inf) [1, 11]: 318 ng·h/mL
AUC(0-t) [1, 11]: 318 ng·h/mL
Cmax [1, 11]: 82.5 ng/mL
Vd/F [1, 11]: 141 L
Tmax ([1]; subcutaneous, 2-hour INF 6 mg, read-out: Tmax (median)): 2.25 h
CL renal [1, 12]: 17500 mL/min
CL renal [1, 4]: 19700 mL/min
CL renal [1, 5]: 17900 mL/min
CL renal [1, 6]: 15600 mL/min
CL renal [1, 7]: 17500 mL/min
CL renal [1, 8]: 14300 mL/min
CL renal ([1]; subcutaneous, 2-hour INF 1 mg, geometric mean (% CV)): 11400 mL/min
CL renal ([1]; subcutaneous, 2-hour INF 3 mg, geometric mean (% CV)): 13900 mL/min
CL renal ([1]; subcutaneous, 2-hour INF 6 mg, geometric mean (% CV)): 16900 mL/min
dose excreted ([1]; sc, 0.003 to 6 mg, bolus and infusion, read-out: Fe, range over cohorts): 3.09 to 5.4%
dose excreted ([1]; sc, 2-hour INF 1 mg, geometric mean (% CV), read-out: Fe (urine)): 3%
dose excreted ([1]; sc, 2-hour INF 3 mg, geometric mean (% CV), read-out: Fe (urine)): 3.94%
dose excreted ([1]; sc, 2-hour INF 6 mg, geometric mean (% CV), read-out: Fe (urine)): 5.38%
dose excreted ([1]; single SC 0.001 mg, only 1 subject above LLOQ, read-out: Fe (urine)): 3.47%
dose excreted ([1]; single SC 0.003 mg, geometric mean, read-out: Fe (urine)): 3.97%
dose excreted ([1]; single SC 0.01 mg, geometric mean, read-out: Fe (urine)): 3.71%
dose excreted ([1]; single SC 0.03 mg, geometric mean, read-out: Fe (urine)): 3.34%
dose excreted ([1]; single SC 0.1 mg, geometric mean, read-out: Fe (urine)): 4.08%
dose excreted ([1]; single SC 0.3 mg, geometric mean, read-out: Fe (urine)): 3.77%
Ae(0-t) (urine) [1, 12]: 34.658 ng
Fe (urine) [1, 12]: 3.466%
Ae(0-t) (urine) [1, 4]: 119.177 ng
Ae(0-t) (urine) [1, 5]: 370.540 ng
Ae(0-t) (urine) [1, 6]: 1003.082 ng
Ae(0-t) (urine) [1, 7]: 4077.298 ng
Ae(0-t) (urine) [1, 8]: 11326.187 ng
Time of gonadotropin peak after bolus ([2]; 0.1 mg SC bolus on day 1): 24 h
Serum LH and FSH concentrations during prolonged infusion ([2]; 13-day SC infusion 0.01 to 1.0 mg/day): declined to values below baseline
Time of LH and FSH return to baseline values postdose ([2]; after 13-day SC infusion): ≤ 7 days
